Tests used:
Type in all cases: biochemical
JAK2 kinase domain = JAK2 kinase domain (Homo sapiens (Human), UniProt O60674); test: JAK2 inhibition assay (Caliper LabChip, isolated kinase domain); details: 25 uM ATP, 0.2 nM JAK2; read-out: JAK2 enzymatic activity (Ki)
Source text: (§1) The catalytically active kinase domain of human JAK1, JAK2, JAK3 or TYK2 was purified from extracts of SF9 insect cells infected with a recombinant baculovirus expression vector encoding the human JAK1, JAK2, JAK3 or TYK2 kinase domains (JAK1 amino acid residues N852-D1154 according to the numbering of GenBank sequence accession number P23458, JAK2 amino acid residues D812-G1132 according to the numbering of GenBank sequence accession number NP_004963.1; JAK3 amino acid residues S783-S1124 according to the numbering of GenBank sequence accession number P52333, and TYK2 amino acid residues N873-C1187 according to the numbering of GenBank sequence accession number P29597). The activity of the JAK1, JAK2, JAK3 or TYK2 kinase domains can be measured by a number of direct and indirect methods, including quantification of phosphorylation of peptide substrates derived from the human JAK3 protein (Saltzman et al., Biochem. Biophys. Res. Commun. 246:627-633 (2004)). The activity of the JAK1, JAK2, JAK3 or TYK2 kinase domains was measured in vitro by monitoring phosphorylation of JAK3 derived peptides using the Caliper LabChip technology (see Examples).
(§2) The activity of the isolated JAK1, JAK2 or TYK2 kinase domain was measured by monitoring phosphorylation of a peptide derived from JAK3 ([…] fluorescently labeled on the N-terminus with 5-carboxyfluorescein using the Caliper LabChip technology (Caliper Life Sciences, Hopkinton, Mass.). […] Reactions were incubated at 22° C. in 384-well polypropylene microtiter plates for 30 minutes and then stopped by addition of 25 uL of an EDTA containing solution (100 mM Hepes pH 7.2, 0.015% Brij-35, 150 mM EDTA), resulting in a final EDTA concentration of 50 mM. After termination of the kinase reaction, the proportion of phosphorylated product was determined as a fraction of total peptide substrate using the Caliper LabChip 3000 according to the manufacturer's specifications. Ki values were then determined using the Morrison tight binding model. Morrison, J. F., Biochim. Biophys. Acta. 185:269-296 (1969); William, J. W. and Morrison, J. F., Meth. Enzymol., 63:437-467 (1979).

JAK1 kinase domain = JAK1 kinase domain (Homo sapiens (Human), UniProt P23458); test: JAK1 inhibition assay (Caliper LabChip, isolated kinase domain); details: 25 uM ATP, 1.5 nM JAK1; read-out: JAK1 enzymatic activity (Ki)
JAK1 kinase domain, sequence (P23458 852-1154): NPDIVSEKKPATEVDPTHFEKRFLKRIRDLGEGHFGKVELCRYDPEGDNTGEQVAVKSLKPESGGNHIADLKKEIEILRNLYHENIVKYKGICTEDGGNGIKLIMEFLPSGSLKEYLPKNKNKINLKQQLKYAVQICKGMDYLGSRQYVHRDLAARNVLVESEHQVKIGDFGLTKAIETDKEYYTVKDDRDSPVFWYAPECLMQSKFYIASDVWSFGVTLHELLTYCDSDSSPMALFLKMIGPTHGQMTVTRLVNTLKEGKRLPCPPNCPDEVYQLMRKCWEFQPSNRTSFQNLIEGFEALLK
Source text: as §1, §2

JAK3 kinase domain = JAK3 kinase domain (Homo sapiens (Human), UniProt P52333); test: JAK3 inhibition assay (Caliper LabChip, isolated kinase domain); details: 5 uM ATP, 5 nM JAK3; read-out: JAK3 enzymatic activity (Ki)
JAK3 kinase domain, sequence (P52333 783-1124): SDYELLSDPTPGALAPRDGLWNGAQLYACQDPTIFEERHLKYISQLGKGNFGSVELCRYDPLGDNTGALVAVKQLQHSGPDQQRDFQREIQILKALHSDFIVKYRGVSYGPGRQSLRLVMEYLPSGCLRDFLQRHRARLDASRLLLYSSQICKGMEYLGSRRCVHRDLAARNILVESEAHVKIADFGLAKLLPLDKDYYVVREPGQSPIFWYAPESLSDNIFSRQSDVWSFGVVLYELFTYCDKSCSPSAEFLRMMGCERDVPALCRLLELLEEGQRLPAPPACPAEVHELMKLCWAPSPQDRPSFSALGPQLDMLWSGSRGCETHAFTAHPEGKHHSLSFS
Source text: as §1, with “Previous studies have shown that the isolated kinase domains of human JAK1, JAK2, JAK3 or TYK2 phosphorylate peptide substrates in in vitro kinase assays (Saltzman et al., Biochem. Biophys. Res. Commun. 246:627-633 (2004)). The catalytically” for “The catalytically”
as §2, with “JAK3” for “JAK1, JAK2 or TYK2”

TYK2 kinase domain = TYK2 kinase domain (Homo sapiens (Human), UniProt P29597); test: TYK2 inhibition assay (Caliper LabChip, isolated kinase domain); details: 25 uM ATP, 1 nM TYK2; read-out: TYK2 enzymatic activity (Ki)
TYK2 kinase domain, sequence (P29597 873-1187): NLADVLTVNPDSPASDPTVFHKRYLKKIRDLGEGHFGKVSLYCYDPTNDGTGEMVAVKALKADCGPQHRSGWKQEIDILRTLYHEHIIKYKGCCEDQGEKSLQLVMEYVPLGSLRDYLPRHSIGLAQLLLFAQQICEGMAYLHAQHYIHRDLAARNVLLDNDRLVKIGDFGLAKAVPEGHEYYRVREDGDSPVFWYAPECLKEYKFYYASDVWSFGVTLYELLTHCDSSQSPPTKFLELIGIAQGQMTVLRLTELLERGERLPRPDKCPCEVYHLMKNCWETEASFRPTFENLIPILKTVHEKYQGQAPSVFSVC
Source text: as §1, §2

JAK2 kinase domain, sequence (O60674 812-1132): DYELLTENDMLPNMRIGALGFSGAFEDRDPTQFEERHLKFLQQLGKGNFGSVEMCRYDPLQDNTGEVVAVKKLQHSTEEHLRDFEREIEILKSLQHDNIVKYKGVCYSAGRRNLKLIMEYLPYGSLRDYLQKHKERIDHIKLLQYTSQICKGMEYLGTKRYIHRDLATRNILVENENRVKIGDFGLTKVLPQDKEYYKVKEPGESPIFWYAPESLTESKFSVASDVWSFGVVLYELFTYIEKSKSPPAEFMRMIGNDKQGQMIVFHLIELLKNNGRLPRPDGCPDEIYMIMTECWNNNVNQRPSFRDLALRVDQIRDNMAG

| SMILES | Ki (JAK2 kinase domain) [µM] | Ki (JAK1 kinase domain) [µM] | Ki (JAK3 kinase domain) [µM] | Ki (TYK2 kinase domain) [µM] |
| --- | --- | --- | --- | --- |
| COc1ncc(Cl)cc1-c1nn(CC(=O)N(C)C)cc1NC(=O)c1cnn2cccnc12 [Example 499, N-(3-(5-chloro-2-methoxypyridin-3-yl)-1-(2-(dimethylamino)-2-oxoethyl)-1H-pyrazol-4-yl)pyrazolo[1,5-a]pyrimidine-3-carboxamide] | 0.0058 | 0.0016 | 0.78 | 0.014 |
| Cc1cc(NC(=O)c2cnn3cccnc23)n(-c2ccccc2Br)n1 [Example 44, N-(1-(2-bromophenyl)-3-methyl-1H-pyrazol-5-yl)pyrazolo[1,5-a]pyrimidine-3-carboxamide] | 0.018 | 0.131 | 0.14 | 0.48 |
| COc1cnc(C(F)(F)F)cc1-c1nn(CC(C)(C)O)cc1NC(=O)c1cnn2cccnc12 [Example 143, N-(1-(2-hydroxy-2-methylpropyl)-3-(5-methoxy-2-(trifluoromethyl)pyridin-4-yl)-1H-pyrazol-4-yl)pyrazolo[1,5-a]pyrimidine-3-carboxamide] | 0.0385 | 0.012 | 1.5 | 0.35 |
| COc1ccc(Cl)cc1-c1nn(CC(=O)N2CC=CCC2)cc1NC(=O)c1cnn2cccnc12 [Example 300, N-(3-(5-chloro-2-methoxyphenyl)-1-(2-(5,6-dihydropyridin-1(2H)-yl)-2-oxoethyl)-1H-pyrazol-4-yl)pyrazolo[1,5-a]pyrimidine-3-carboxamide] | 0.0025 | 0.0005 | 0.17 | 0.01 |
| COc1ccc(F)cc1-c1nn(CC2(O)CCOCC2)cc1NC(=O)c1cnn2cccnc12 [Example 364, N-(3-(5-fluoro-2-methoxyphenyl)-1-((4-hydroxytetrahydro-2H-pyran-4-yl)methyl)-1H-pyrazol-4-yl)pyrazolo[1,5-a]pyrimidine-3-carboxamide] | 0.0062 | 0.0023 | 0.71 | 0.047 |
| COc1ccc(Cl)cc1-c1nn(CC(=O)N2CCCC2C)cc1NC(=O)c1cnn2cccnc12 (centres unmarked) [Example 283, N-(3-(5-chloro-2-methoxyphenyl)-1-(2-(2-methylpyrrolidin-1-yl)-2-oxoethyl)-1H-pyrazol-4-yl)pyrazolo[1,5-a]pyrimidine-3-carboxamide] | 0.0031 | 0.0007 | 0.27 | 0.0091 |
| COc1ccc(C#N)cc1-c1nn(Cc2ncnn2C)cc1NC(=O)c1cnn2cccnc12 [Example 155] | 0.0026 | 0.0042 | 0.21 | 0.065 |
| O=C(Nc1ccnn1-c1ccccc1Cl)c1cnn2cccnc12 [Example 51, N-(1-(2-chlorophenyl)-1H-pyrazol-5-yl)pyrazolo[1,5-a]pyrimidine-3-carboxamide] | 0.0152 | 0.0837 | 0.15 | 0.098 |
| Cc1cc(NC(=O)c2cnn3cccnc23)n(-c2cc(Cl)ccc2C)n1 [Example 6, N-(1-(5-chloro-2-methylphenyl)-3-methyl-1H-pyrazol-5-yl)pyrazolo[1,5-a]pyrimidine-3-carboxamide] | 0.0049 | 0.0462 | 0.152 | 0.0996 |
| COc1ccc(Cl)cc1-c1c(NC(=O)c2c(N)nn3cccnc23)cnn1CC(N)=O [Example 217, 2-amino-N-(1-(2-amino-2-oxoethyl)-5-(5-chloro-2-methoxyphenyl)-1H-pyrazol-4-yl)pyrazolo[1,5-a]pyrimidine-3-carboxamide] | 0.0005 | 0.0021 | 0.0055 | 0.0023 |
| COc1ccc(C#N)cc1-c1nn(CC2(O)CCCC2)cc1NC(=O)c1cnn2cccnc12 [Example 359, N-(3-(5-cyano-2-methoxyphenyl)-1-((1-hydroxycyclopentyl)methyl)-1H-pyrazol-4-yl)pyrazolo[1,5-a]pyrimidine-3-carboxamide] | 0.0042 | 0.001 | 0.69 | 0.046 |
| COc1ncc(C#N)cc1-c1n[nH]cc1NC(=O)c1cnn2cccnc12 [Example 158, N-(3-(5-Cyano-2-methoxypyridin-3-yl)-1H-pyrazol-4-yl)pyrazolo[1,5-a]pyrimidine-3-carboxamide] | 0.0015 | 0.0048 | 0.053 | 0.0066 |
| Cc1cc(NC(=O)c2cnn3cccnc23)n(-c2cc(Cl)ccc2Cl)n1 [Example 41, N-(1-(2,5-dichlorophenyl)-3-methyl-1H-pyrazol-5-yl)pyrazolo[1,5-a]pyrimidine-3-carboxamide] | 0.0033 | 0.0351 | 0.0739 | 0.104 |
| Cc1cc(NC(=O)c2cnn3cccnc23)n(-c2cc(C#N)ccc2Cl)n1 [Example 38, N-(1-(2-chloro-5-cyanophenyl)-3-methyl-1H-pyrazol-5-yl)pyrazolo[1,5-a]pyrimidine-3-carboxamide] | 0.0057 | 0.0403 | 0.102 | 0.131 |
| O=C(Nc1ccnn1-c1ccc(Cl)cc1)c1cnn2cccnc12 [Example 54, N-(1-(4-chlorophenyl)-1H-pyrazol-5-yl)pyrazolo[1,5-a]pyrimidine-3-carboxamide] | 0.159 | 1.2 |  | 0.85 |
| COc1ccc(Cl)cc1-c1nc(C)sc1NC(=O)c1cnn2cccnc12 [Example 170, N-(4-(5-chloro-2-methoxyphenyl)-2-methylthiazol-5-yl)pyrazolo[1,5-a]pyrimidine-3-carboxamide] | 0.0004 | 0.0007 | 0.013 | 0.0021 |
| COc1ccc(Cl)cc1-c1nn(CC(O)(C(F)(F)F)C(F)(F)F)cc1NC(=O)c1cnn2cccnc12 [Example 432, N-(3-(5-chloro-2-methoxyphenyl)-1-(3,3,3-trifluoro-2-hydroxy-2-(trifluoromethyl)propyl)-1H-pyrazol-4-yl)pyrazolo[1,5-a]pyrimidine-3-carboxamide] | 0.0057 | 0.0015 | 0.57 | 0.031 |
| CCOc1ccc(Cl)cc1-c1nn([C@H]2CCCC[C@@H]2O)cc1NC(=O)c1cnn2cccnc12 (stereo in doubt) [Example 414, N-(3-(5-chloro-2-ethoxyphenyl)-1-((1S,2S)-2-hydroxycyclohexyl)-1H-pyrazol-4-yl)pyrazolo[1,5-a]pyrimidine-3-carboxamide And N-(3-(5-chloro-2-ethoxyphenyl)-1-((1R,2R)-2-hydroxycyclohexyl)-1H-pyrazol-4-yl)pyrazolo[1,5-a]pyrimidine-3-carboxamide] | 0.0125 | 0.0038 | 0.21 | 0.076 |
